Results published in US9346767B2, “Substituted pyrazines and a process for producing the same” (JNC CORPORATION, priority 2011, dated 2016).

Key:
Renilla luciferase-547 = molecular target: T1, Renilla luciferase-547 (Renilla reniformis, UniProt P27652, A123S/A143M/A55T/C124A/D154A/D162E/E155G/F262W/I163V/K136R/M185V/M253L/S130A/S287L); assay: Measurement of emission spectrum with Renilla luciferase-547; format: biochemical; settings: Renilla luciferase-547, 5 μg substrate, 50 mM Tris-HCl (pH 7.6)-10 mM EDTA, 22-25° C.
T1 construct: His6 with pCold-II leader (MNHKVHHHHHHMELG...) (N); made in house; host or cells: Escherichia coli BL21
T1 sequence (P27652 other isoform, or with tags, fused parts or gaps with the stated changes): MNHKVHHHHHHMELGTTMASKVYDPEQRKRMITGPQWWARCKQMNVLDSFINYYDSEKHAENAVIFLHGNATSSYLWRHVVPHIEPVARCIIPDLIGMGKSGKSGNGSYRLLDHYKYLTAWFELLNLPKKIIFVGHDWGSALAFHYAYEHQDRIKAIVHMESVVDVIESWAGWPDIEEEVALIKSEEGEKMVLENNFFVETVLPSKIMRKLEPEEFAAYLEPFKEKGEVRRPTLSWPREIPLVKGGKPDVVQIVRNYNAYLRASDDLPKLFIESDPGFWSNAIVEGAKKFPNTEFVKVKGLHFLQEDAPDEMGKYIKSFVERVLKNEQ
Method: (§1) The luminescence reaction was initiated by adding luciferase to 1 mL of 50 mM Tris-HCl (pH 7.6)-10 mM EDTA containing 5 μg (1 μg/μL) of substrate coelenterazine or ν-coelenterazine dissolved in ethanol. The protein amounts of luciferases used were Renilla luciferase: 1.5 μg and Renilla luciferase-547: 7.2 μg in the case of coelenterazine as substrate. On the other hand, the protein amounts in ν-coelenterazine as substrate were Renilla luciferase: 14.7 μg and Renilla luciferase-547: 35.8 μg. Luminescence spectra were measured in a quartz cell with a 10 mm optical path under the conditions of band width: 20 nm, sensitivity: medium, scan speed: 2000 nm/min and 22-25° C., using a fluorescence spectrophotometer FP-6500 (manufactured by JASCO) with the excitation light source turned off.

Renilla luciferase [1] = molecular target: T2, Renilla luciferase (Renilla reniformis, UniProt P27652); assay: Measurement of luminescence activity with Renilla luciferase; format: biochemical; parameters: His tag (from vector pCold-II; inferred from the nickel-chelate purification and the vector) (N); made in house; host or cells: Escherichia coli BL21; settings: Renilla luciferase 2.94 ng, 0.05 μg substrate, 30 mM Tris-HCl (pH 7.6)-10 mM EDTA; relative to coelenterazine
T2 sequence (P27652 1-311): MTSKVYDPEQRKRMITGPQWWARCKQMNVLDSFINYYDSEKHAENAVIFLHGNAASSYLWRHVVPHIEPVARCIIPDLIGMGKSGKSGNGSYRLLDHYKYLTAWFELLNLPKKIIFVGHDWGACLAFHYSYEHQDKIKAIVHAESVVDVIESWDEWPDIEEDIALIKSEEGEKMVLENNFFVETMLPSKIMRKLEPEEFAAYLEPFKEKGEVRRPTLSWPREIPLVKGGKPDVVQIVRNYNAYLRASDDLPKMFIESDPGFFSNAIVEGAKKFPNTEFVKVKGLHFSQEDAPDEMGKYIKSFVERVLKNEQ
Method: After Renilla luciferase (2.94 ng) or Renilla luciferase-547 (14.3 ng) was dispensed into a 96-well microplate (manufactured by Nunc) in an amount of 10 μL/well, 0.1 mL of 30 mM Tris-HCl (pH 7.6)-10 mM EDTA containing 0.05 μg of coelenterazine or ν-coelenterazine was injected into the wells thereby to initiate the luminescence reaction, and the luminescence intensity was measured using a luminescence plate reader Centro LB960 (manufactured by Berthold). The luminescence intensity was measured for 60 seconds 3 times in 0.1 second intervals, and the maximum luminescence intensity (Imax) and the mean (rlu) from luminescence integrated for 60 seconds were expressed in terms of relative activity (%) (TABLE 2).

Renilla luciferase [2] = molecular target: T2, Renilla luciferase; assay: Measurement of emission spectrum with Renilla luciferase; format: biochemical; parameters: His tag (from vector pCold-II; inferred from the nickel-chelate purification and the vector) (N); made in house; host or cells: Escherichia coli BL21; settings: for Emission Maximum λmax / Emission spectrum half bandwidth: Renilla luciferase, 5 μg substrate, 50 mM Tris-HCl (pH 7.6)-10 mM EDTA, 22-25° C.; for shift of maximum emission wavelength (in words): summary of EXAMPLES, Renilla luciferase and Renilla luciferase-547
Method: as §1

Renilla luciferase [3] = molecular target: T2, Renilla luciferase; settings: substrate for Renilla luciferase, cited from earlier work

SMILES | Emission Maximum λmax (Renilla luciferase-547) | Emission spectrum half bandwidth (Renilla luciferase-547) | Luminescence integrated for 60 seconds (Int.), relative activity (Renilla luciferase [1]) | Maximum Luminescence Intensity Imax, relative activity (Renilla luciferase [1]) | Emission Maximum λmax (Renilla luciferase [2]) | Emission spectrum half bandwidth (Renilla luciferase [2]) | shift of maximum emission wavelength (in words) (Renilla luciferase [2]) | part of emission spectrum distribution reaching the near-infrared region (>700 nm) (Renilla luciferase [3]) | shift of maximum emission wavelength toward the longer wavelength side (Renilla luciferase [3]; from 475 nm) | maximum emission wavelength (Renilla luciferase [3]; green emission)
O=c1c(Cc2ccc(C(F)(F)F)cc2)nc2c(Cc3ccccc3)[nH]c3c4ccc(O)cc4ccc3n1-2 [cf3-v-Coelenterazine, cf3-ν-coelenterazine] | 599.0 nm | 132 nm | 12.3% | 18.9% | 525.5 nm | 121 nm | shifted toward a longer wavelength side even relative to ν-coelenterazine |  |  | 
O=c1c(Cc2ccc(O)cc2)nc2c(Cc3ccccc3)[nH]c3c4ccc(O)cc4ccc3n1-2 [v-Coelenterazine, ν-Coelenterazine] | 593.0 nm | 130 nm | 47.3% | 71.8% | 519.0 nm | 105 nm | shifted toward a longer wavelength side relative to coelenterazine | ~5% | about 40 nm | 512 nm
O=c1c(Cc2ccc(O)cc2)nc2c(Cc3ccccc3)[nH]c(-c3ccc(O)cc3)cn1-2 [Coelenterazine, coelenterazine, reference compound] | 547.0 nm | 124 nm | 100 (100) % | 100 (100) % | 485.0 nm | 95 nm |  |  |  | 
